The source of these data is patent US10781171B2, “Substituted pyrrolidines as G-protein coupled receptor 43 agonists” (Epics Therapeutics, priority 2009, dated 2020).

In the assay the test system is ob/ob mice. Nature of the assay: Oral glucose tolerance test (OGTT) in ob/ob mice. It is filed as in vivo, mouse. To be noted: blood glucose AUC -15 to 120 min in OGTT, 50 mg/kg bi-daily for 28 days. On the procedure: Ob/ob or obese mice are leptin-deficient mice that eat excessively and become profoundly obese, hyperinsulinemic and hyperglycemic. It is an animal model of type II diabetes. Such model can be used for oral glucose tolerance tests (OGTTs). A total of sixteen (16) male ob/ob mice (6 weeks of age) were obtained from Harlan. Upon arrival to the animal unit, mice were housed 4 per cage in rodent cages mounted with feeders containing regular chow. The mice were put in a 12/12h light-dark cycle (light from 0600-1800 h) with controlled temperature conditions (22-24° C.). Fed blood glucose and body-weight was measured on day −2 in the morning between 08:00 AM and 09:00 AM. Animals were randomized into 2 groups according to fed glucose levels (on day −2). […]
Day 1 is the first day of dosing. […] At −15 min, blood glucose was measured (using a glucose analyzer) and animals were dosed with compounds of the invention or vehicle. At time point 0, blood glucose was measured again and glucose was administered by oral gavage (1 g/kg glucose). The blood glucose was then measured at time points 15, 30, 45, 60 and 120 minutes. […] The percentages of AUC inhibition induced by compounds of the invention were calculated as follows: % of AUC inhibition: [1-(AUC compound/AUC vehicule)]*100.

For the compound `COc1ccccc1-c1ccc(C(=O)N2[C@@H](c3ccccc3Cl)CC[C@H]2C(=O)O)cc1` [Compound 1, (2S,5R)-5-(2-chlorophenyl)-1-(2′-methoxy-[1,1′-biphenyl]-4-carbonyl)pyrrolidine-2-carboxylic acid], the “% of AUC inhibition” value turned out to be 40%.
